Source: ChEMBL document CHEMBL1154503, “Calmodulin inhibitors from the fungus Emericella sp” (Bioorg Med Chem, 2009)

Columns and labels:
[1] = target: T1, Calmodulin-1 (Homo sapiens, UniProt P0DP23); assay: Inhibition of recombinant calmodulin mediated bovine brain PDE1 activation assessed as effect on inorganic phosphate release by spectrophotometry
[2] = target: T1, Calmodulin-1; assay: Inhibition of recombinant calmodulin mediated bovine brain PDE1 activation assessed as effect on inorganic phosphate release using variable calmodulin level by spectrophotometry

Row | SMILES | IC50 [1] | Ki [2]
1 | C=C(C)[C@H]1COc2c(C)cc3oc4c(C[C@H](Cl)C(C)(C)O)ccc(O)c4c(=O)c3c2[C@@H]1O | 9.59 µM | –
2 | C=C(C)[C@H]1COc2c(C)cc3oc4c([C@H](OC)[C@@H]5OC5(C)C)ccc(O)c4c(=O)c3c2[C@@H]1O | 5.54 µM | 25.4 µM
3 | C=C(C)[C@H]1COc2c(C)cc3oc4c(CC=C(C)C)ccc(O)c4c(=O)c3c2[C@@H]1O [SHAMIXANTHONE] | 29.2 µM | –
4 | C=C(C)[C@H]1COc2c(C)cc3oc4c(C[C@H](O)C(C)(C)O)ccc(O)c4c(=O)c3c2[C@@H]1O [TAJIXANTHONE HYDRATE] | 5.62 µM | 13.9 µM
